We go through 7 compounds from patent US7438926B2, “Methods for inhibiting decrease in transdermal drug flux by inhibition of pathway closure” (Alza Corporation, priority 2000, dated 2008).

Data set [1] concerns pathway closure. Briefly: Inhibition of pathway closure by chemicals, methylene blue dye score after microprotrusion array pretreatment. It is filed as in vivo, hairless guinea pigs. The note with it: 24 h; for Score (methylene blue): scale 0 to 5, 0.5 or greater significant; for Effect on pathway closure (in words): methylene blue evaluation, Table II. As to the method: Inhibition of pathway collapse by chemical agents was studied following pretreatment of the skin with a microprotrusion array and application of a formulation containing the agent for 24 h. Quantitation was performed by evaluation of dye impregnation of the pathways.
Application of the microprotrusion array was performed with an impact applicator. […] Following application, the stretching tension was released. […] The guinea pig received a second system containing a different formulation on the opposite site. Twenty four hours after application, three systems from each group were removed and residual formulation washed from the skin. The skin was stained with a 1% methylene blue solution. Excess dye was thoroughly removed with 70% isopropyl alcohol pads and a picture of the site was taken. Pictures were scored on a 0 to 5 scale, 5 being the dye uptake obtained immediately following microprotrusion array application and 0 being the dye uptake obtained after 24 h contact with a control formulation. A score of 0.5 or greater was considered significant. Various osmotic agents, anticoagulants, antiinflammatory agents, gelling agents as well as gels of different pH and various additives were tested (Table II).

In data set [2] the test system is pathway closure. Briefly: India ink staining of sites after microprotrusion array pretreatment. The class given is in vivo, hairless guinea pigs. The note with it: sites exposed to the additive for 24 h.
The format of data set [3] is in vivo, hairless guinea pigs.
Details of data set [4]: species or system hairless guinea pigs. Conditions: guinea pig, in vivo. The source says: […]. […] […].
Data set [5] relates to pathway closure. Conditions: guinea pig, not told. How it is done: (§1) Evaluation was performed at 45 min instead of 1 h. In addition, additional groups of animals received a formulation containing the mixture of 3% citric acid trisodium salt and 50% 1,2,6-hexanetriol.
An additional experiment was performed with PPS. Conditions were identical to that described in Example 4. Gluconic acid sodium salt, glucuronic acid sodium salt and glucose were evaluated at 0.6 M concentration with or without 3% citric acid.

On the set-up of data set [6]: species or system hairless guinea pigs. Conditions: guinea pig, in vivo. How it is done: Additional experiments were performed with PPS in order to test alternative modes of delivery. […]. By comparison, with the same microprotrusion array and the same PPS concentration, total dose from a transdermal microprotrusion array with integrated drug reservoir and a pretreatment with a microprotrusion array and subsequent application of a drug reservoir was 2.2±0.2 mg and 1.4±0.2 mg, respectively. […]
The source holds these as a separate data set.

Data set [7] has as its system pathway closure. The data set can be described thus: Effect of pathway closure inhibitors on passive transdermal PPS flux (Example 3, 545 μm array). It is filed as in vivo, hairless guinea pigs. The note with it: for Effect on decrease in PPS flux between 1 and 24 h (in words): 3% citric acid trisodium salt or 50% 1,2,6-hexanetriol in PPS 0.1 mg/mL formulation; for Increase in total amount of PPS transported as compared to controls: 3% citric acid trisodium salt or 50% 1,2,6-hexanetriol. As to the method: In this experiment, PPS was delivered by passive diffusion through pathways in the skin created by a microprotrusion array. The concentration of PPS was below the concentration required for inhibition of pathway collapse (see Table II). Therefore, at the concentration used in this experiment, PPS behaved like a drug lacking any activity on pathway closure.
Microprotrusion array application was performed with an impact applicator. […] Following application, the stretching tension was released. […] Flux in the presence of 1,2,6-hexanetriol was decreased by less than 2 fold between 1 and 24 h. Total amount transported was increased about 4 and 7 folds in the presence of citric acid and 1,2,6-hexanetriol, respectively, as compared to controls as shown in FIG. 2.

For data set [8] the following is noted: in vivo, po, cited from earlier work.
A short description of data set [9]: Passive intracutaneous delivery of plasmid DNA vaccine with microprotrusion array (skin biopsy, PCR). The class given is in vivo, hairless guinea pigs. Conditions: for Increase in plasmid DNA delivered as compared to the control formulation: at one hour, 3% citric acid trisodium salt or 1% Tween 80 in formulation. As to the method: Feasibility studies were conducted in hairless guinea pigs (HGPs) to determine whether passive intracutaneous delivery of a plasmid DNA vaccine (pCMV-AYW-HBs-Mkan), which encodes for hepatitis B surface antigen [HBsAg]), could be achieved using Macroflux. […] Application of the microprotrusion array was performed with an impact applicator. The system applied comprised a foam double adhesive ring (diameter 2.5 cm, thickness 0.08 cm) with a 1 cm^2 reservoir in the middle.
One of two configurations of microprotrusion arrays were used. Each configuration has a total surface area of 2 cm^2 and an active total blade surface area of 1 cm^2.
A microprotrusion array of the selected type was adhered to the adhesive foam and covered the bottom of the reservoir (after application, the microprotrusion array is in contact with the skin). Following application, the stretching tension was released and the microprotrusion array was left in situ. […] At 1 hour after application, two systems from each group were removed and residual formulation washed from the skin. The amount of drug penetrated at that time was determined in a 6 mm diameter full thickness skin biopsy taken at the skin site. The biopsy was dissolved in a digestion buffer (sodium dodecyl sulfate/proteinase K) and relevant DNA content was evaluated by polymerase chain (PCR) reaction followed by electrophoresis of the PCR product. A positive control group was included which consisted of 10 μg plasmid DNA injected intradermally. Negative controls consisted of the plasmid DNA applied on the skin without the use of a microprotrusion array. […].

For data set [10], the system named is pathway closure. Conditions: PPS 0.16 mg/mL; 3% citric acid trisodium salt, 50% 1,2,6-hexanetriol or their mixture; 45 min vs 24 h. As to the method: In all guinea pigs, the skin of one flank was manually stretched bilaterally at the time of the application of the system. Microprotrusion array application was performed with an impact applicator. […] Following application, the stretching tension was released. The adhesive ring was left adhered on the skin and the microprotrusion array was removed. […] Additional groups of HGPs were treated in the same way, except that the formulation contained 3% citric acid trisodium salt or 50% 1,2,6-hexanetriol. At 1 and 24 h after application, 3 systems from each group were removed and residual drug washed from the skin.
as §1

The format of data set [11] is in vivo, hairless guinea pigs. Conditions: passive, array pretreatment (545 micrometer, 72/cm^2), PPS 0.05 mg/mL, DECAD 12 mg/mL, Inulin 2.5 mg/mL. The source says: Decrease in drug flux has been studied with three model drugs presenting different charge characteristics: pentosan polysulfate (PPS), a highly negatively charged compound, DECAD, a synthetic model decapeptide bearing two positive charges at pH 5.5, and inulin, a neutral polysaccharide.
In this experiment, PPS, DECAD, and inulin were delivered by passive diffusion through pathways in the skin created by pretreatment with a microprotrusion array. Pretreatment involves placing a microprotrusion array onto the skin with sufficient force to create a plurality of microslits/microcuts through the stratum corneum of the skin. The microprotrusion array is then removed from the skin and then some form of agent delivery device or agent reservoir is placed over the pathways in order to effect agent delivery or sampling. Pretreatment was used instead of integrated system because pathway closure appears to occur more rapidly and more reproducibly following pretreatment than when the microprotrusions are left in the skin during drug delivery. The concentration of PPS was below the concentration required for anticoagulant effect. All drugs were dissolved in water and solutions were gelled with 2% hydroxyethylcellulose. […]. PPS and DECAD were radiolabeled with tritium. […] was radiolabeled with ^14C.
Microprotrusion array application was performed with an impact applicator. […]. […]

Structures can show the parent of a compound that is named as a salt. Where two headings read alike, the source gives them in different places.

Turning to `OCC(O)CO` [Glycerin], the “Score (methylene blue)” value is 2.7 ± 0.2 in the data set with pathway closure [1] (additive concentration 30%), 3.0 ± 0.2 with pathway closure [1] (additive concentration 50%) and 2.7 ± 0.3 in the data set on pathway closure [1] (additive concentration 70%). In the data set on pathway closure [2], the “Pathways open for larger sized compounds (India ink staining)” value is “pathways were open for larger sized compounds”.
As for pentosan polysulfate [PPS], the “Score (methylene blue)” value in the data set on pathway closure [1] (additive concentration 0.01%) worked out at 0 ± 0. For the same compound, in the data set on pathway closure [1] (additive concentration 5%), the “Score (methylene blue)” value is 0.5 ± 0.0. In addition, the “percentage excreted in urine following iv injection” value in [3] (guinea pig, in vivo, iv) was determined as 32%. In addition, the “intact fraction of dose excreted in urine” value in data set [4] was “more than 85%”. Besides, the “Change of PPS flux between 1 hour and 24 hours (in words)” value in the data set with pathway closure [5] is on record as “flux decreased dramatically”. In data set [6], this compound had a total dose of 2.2 ± 0.2 mg and a total dose delivered of 1.9 ± 0.1 mg. Further, the “Decrease in PPS flux between 1 hour and 24 hours” value in the data set with pathway closure [7] (PPS 0.1 mg/mL, 2% HEC, no anti-healing agent) was “about 12 fold”. Moreover, the bioavailability in data set [8] (300 mg) was 1-3%. Besides, in [8], the “fraction of dose absorbed found intact in urine” value is listed as “less than 5%”.
Turning to `CCCCCCCC/C=C\CCCCCCCC(=O)OCCOCC(OCCO)C1OCC(OCCO)C1OCCO` (stereo not drawn) [Tween 80], in [9], the “Increase in plasmid DNA delivered as compared to the control formulation” value is “no significant enhancement”.
Take `OCCCCC(O)CO` (stereo not drawn) [1,2,6-Hexanetriol]: in the data set with pathway closure [1], the “Effect on pathway closure (in words)” value was “most effective agents”. For the same compound, the “Score (methylene blue)” value in the data set on pathway closure [1] (additive concentration 11%) was 2.0 ± 0.3; in the data set on pathway closure [1] (additive concentration 23%), 3.0 ± 0.5; with pathway closure [1] (additive concentration 50%) it was 3.8 ± 0.2. In the data set on pathway closure [10], the “Effect on decrease in PPS flux at 24 hours (in words)” value is “inhibited significantly the decrease in flux”. Moreover, the “Effect on decrease in PPS flux between 1 and 24 h (in words)” value in the data set with pathway closure [7] is given as “inhibited this decrease in flux”. The “Increase in total amount of PPS transported as compared to controls” value with pathway closure [7] (PPS 0.1 mg/mL) is around 7 folds. Further, in the data set with pathway closure [7] (PPS 0.1 mg/mL, formulation with 50% 1,2,6-hexanetriol), the “Decrease in PPS flux between 1 and 24 h in the presence of additive” value is “less than 2 fold”.
As for inulin, the “percentage excreted in urine following iv injection” value in [3] (over two days following injection, previous studies) came out at 94%. The figures for the “Drug Flux” value in data set [11] (1 h) and in [11] (24 h) were 13.9 ± 1.6 μg/(cm^2h) and 0.489 ± 0.123 μg/(cm^2h), respectively.
For the compound `O=C(O)CC(O)(CC(=O)O)C(=O)O` [citric acid], the “Effect on pathway closure (in words)” value in the data set with pathway closure [1] is given as “most effective agents in preventing pathway closure”. For the same compound, in the data set with pathway closure [2], the “Pathways open for larger sized compounds (India ink staining)” value is given as “pathways were open for larger sized compounds”. Moreover, the “Effect on decrease in PPS flux at 24 hours (in words)” value in the data set on pathway closure [10] was “inhibited significantly the decrease in flux”. In the data set on pathway closure [7], the “Effect on decrease in PPS flux between 1 and 24 h (in words)” value was “inhibited this decrease in flux”. In the data set on pathway closure [7] (PPS 0.1 mg/mL), the “Increase in total amount of PPS transported as compared to controls” value is “about 4 folds”.
`O=C(O)CC(O)(CC(=O)O)C(=O)O` [citric acid trisodium salt]: in [9] (1 hour), the “Comparison between formulation groups” value was “most efficient formulation”. Further, the “Increase in plasmid DNA delivered as compared to the control formulation” value in data set [9] is recorded as “more than 10 fold”.
